Results taken from article PMC10498496, “Design and Synthesis of Poly(2,2′-Bipyridyl) Ligands for Induction of Cell Death in Cancer Cells: Control of Anticancer Activity by Complexation/Decomplexation with Biorelevant Metal Cations” (Inorganic Chemistry, 2023).
Like-named read-outs stand apart in the source and are kept apart here.

Assays:
Jurkat cells = assay: MTT assay in the presence of the caspase inhibitor Z-VAD-fmk; type: cell-based, human; conditions: Z-VAD-fmk 15 μM 3 h
Text: We, therefore, selected Jurkat cells to study the cell death mechanism in detail, in this work. Programmed cell death (PCD) is generally classified into several types such as apoptosis, necroptosis, paraptosis, autophagic cell death, and so on.[30]−[33] We hypothesized that 1 and 2 function as inducers of apoptosis, which is a type of PCD in cancer cells, based on the morphological change of Jurkat cells observed in Figure 1 and mechanism of chelation therapy proposed in the previous studies.[11]−[19] It is known that the caspases family are cysteine proteases that play important roles in apoptosis and necroptosis.[38] Therefore, the effect of Z-VAD-fmk, which is known as one of general caspase inhibitors, on the cell death induced by 1 and cisplatin was examined.
Figure 3 Effect of Z-VAD-fmk on the cell death in Jurkat cells induced by 1. Jurkat cells were incubated in RPMI in the presence of Z-VAD-fmk (15 μM) for 3 h and then treated with (a) 1 (1 μM) and (b) cisplatin (50 μM) for 24 h. Asterisks indicate significant difference with *(P ≤ 0.05).
To investigate the mechanism responsible for the BAPTA-AM-induced cell death in Jurkat cells, Jurkat cells were incubated with Z-VAD-fmk (15 μM) for 3 h, and then cells were treated with BAPTA-AM (12.5 μM) for 24 h followed by an MTT assay.
IMR-90 cells in DMEM medium with 10% FBS (1.5 × 10^5 cells/mL) were seeded in to 96 well plates and incubated for 24 h at 37 °C, MTT assays with poly(bpy) ligands and their metal complexes (0–100 μM), cisplatin (0–100 μM), and actinomycin D (0–10 μM) were performed following the same procedure described above. These experiments were carried out at least three times. • (b) MTT assay in the presence of a caspase inhibitor. […]

IMR-90 cells = assay: MTT assay, cytotoxicity against IMR-90 cells (model of normal cells); type: cell-based, human; conditions: MTT, 37 °C, treated for 24 h, read-out: EC50 against IMR-90
Experimental: (§1) Second, we conducted the quantitative evaluation of the cytotoxicity of 1, 2, and 3 against various cancer cell lines by an MTT (3-(4,5-dimethylthiazol-2-yl)-2,5-diphenyltetrazolium bromide) assay. Jurkat, MOLT-4 (these two cell lines are human T-lymphocyte leukemia cells), and U937 (human lymphoma) cells (1.5 × 10^4 cells/well) were incubated in RPMI 1640 medium containing 10% FBS (fetal bovine serum) containing 1, 2, and 3 (0–25 μM) at 37 °C for 24 h, and then treated with the MTT reagent. A549 (human alveolar adenocarcinoma) and IMR-90 (normal human fetal lung fibroblast as model of normal cells) cells (1.5 × 10^4 cells/well) were incubated in DMEM (low glucose) with 10% FBS containing 1, 2, and 3 (0–25 μM), HeLa S3 (human epithelial carcinoma cells) cells (1.5 × 10^4 cells/well) were incubated in MEM with 10% FBS containing these ligands (0–25 μM) for 24 h at 37 °C and then treated with the MTT reagent.
IMR-90 cells in DMEM medium with 10% FBS (1.5 × 10^5 cells/mL) were seeded in to 96 well plates and incubated for 24 h at 37 °C, MTT assays with poly(bpy) ligands and their metal complexes (0–100 μM), cisplatin (0–100 μM), and actinomycin D (0–10 μM) were performed following the same procedure described above. These experiments were carried out at least three times. • (b) MTT assay in the presence of a caspase inhibitor. Jurkat cells were pre-treated with Z-VAD-fmk (15 μM) for 3 h, a general caspases inhibitor, followed by the treatment with 1 (1 μM), BABTA-AM (12.5 μM) and cisplatin (50 μM), respectively, for 24 h, and then MTT assay was carried out as described above. • (c) For evaluation of the effect of metal ions on the cytotoxicity of 1, 2, BAPTA, and BAPTA-AM, these ligands were incubated with metal ions such as Cu(NO3)2, Zn(NO3)2, FeSO4, Co(NO3)2, and NiSO4 for 1 h, respectively, and added to Jurkat cells. The whole mixtures were incubated for 12, 24, and 48 h at [ligand] = 0.78–25 μM and at [M^2+] = 1.71–37.5 μM ([ligand]/[M^2+] = 1:1.5). The MTT assays were conducted as described above.

U937 cells = assay: MTT assay, cytotoxicity against U937 cells; type: cell-based, human; conditions: MTT, 37 °C, treated for 24 h, read-out: EC50 against U937
Experimental: as §1
• (a) Cytotoxic study. Jurkat cells, MOLT-4 cells, and U937 cells (1.5 × 10^5 cells/mL per one well) were incubated in 10% FBS RPMI 1640 medium containing 1 (0–25 μM), 2 (0–25 μM) , 3, cisplatin (0–100 μM), and actinomycin D (0–10 μM) under 5% CO2 at 37 °C for 24 h on 96 well plates (Watson), 0.5% MTT (3-(4,5-dimethyl-2-thiazolyl)-2,5-diphenyl-2H-tetrazolium bromide) reagent in PBS (10 μL) was then added to the cells. After incubation at 37 °C for 4 h, a formazan lysis solution (10% SDS in 0.01 N HCl) (100 μL) was added and the resulting solution was incubated overnight under the same conditions, followed by the measurement of absorbance at 570 nm with a microplate reader (BIO-RAD).

[1] = UV/vis absorption titration, apparent stability constant with Ni^2+; type: binding; conditions: 37 °C, 1:1 complex
Experimental: All reagents and solvents were purchased at the highest commercial quality and were used without further purification. Anhydrous DMF was obtained by distillation from calcium hydride. All aqueous solutions were prepared using deionized and distilled water. Melting points were measured using a Yanaco MP-J3 Micro Melting Point apparatus and are uncorrected. UV/vis absorption spectra were recorded on a JASCO V-630 spectrophotometer at 37 °C. The UV/vis absorption titrations of 1 with metal ions were carried out by addition of 10 mM solutions of Zn(NO3)2, NiSO4, Co(NO3)2, Fe(NO3)2, and Al(NO3)3 in H2O and 10 mM solutions of Cu(NO3)2 in DMSO. The apparent stability constants of metal–ligand complexes (Ks) were calculated by using the Bind Works 1.0 software provided by CSC (Calorimetry Science Corp.), an interactive PC software for the analysis of Binding Isotherms on Isothermal Titration Calorimeters (ITCs), to which the change in absorption values obtained by the UV/vis absorption titrations are input.[62] IR spectra were measured with a PerkinElmer FT-IR spectrophotometer (Spectrum 100) at room temperature. ^1H (300 and 400 MHz) NMR spectra were recorded on a JEOL Always 300 spectrometer and a JEOL Always 400 spectrometer, respectively. Luminescence imaging studies were performed using a fluorescent microscope (Biorevo, BZ-9000, Keyence). […]

SMILES: N.N.[Cl][Pt][Cl] [cisplatin, reference compound]
- cell viability of Jurkat cells after preincubation with Z-VAD-fmk (Jurkat cells; then compound 50 μM for 24 h): considerably restored
- EC50 (IMR-90 cells): > 100 µM
- EC50 (U937 cells): 24 ± 0.9 µM

SMILES: c1ccc(-c2ccc(OCc3cc(COc4ccc(-c5ccccn5)nc4)cc(COc4ccc(-c5ccccn5)nc4)c3)cn2)nc1 [compound 1, 1,3,5-Tris(([2,2′-Bipyridin]-5-yloxy)methyl)benzene]
- Kd ([1]; DMSO/30 mM HEPES pH 7.4 (7/3), read-out: dissociation constant Kd (= 1/Ks) of Ni^2+ complex): 0.61 ± 0.02 µM
- apparent stability constant log Ks with NiSO4 ([1]; ligand 30 μM, DMSO/30 mM HEPES pH 7.4, I = 0.1 (NaNO3) (7/3)): 6.21 ± 0.01 (1:1 complex)
- cell viability of Jurkat cells after preincubation with Z-VAD-fmk (Jurkat cells; then compound 1 μM for 24 h): considerably restored
- EC50 (IMR-90 cells; Homo sapiens, IMR-90): > 100 µM
- EC50 (U937 cells; Homo sapiens, U-937): 0.32 ± 0.22 µM
